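Grown in 96-well plates, cells were treated for 48 hours with each compound at five concentrations. Insufficient inhibition: endpoint recorded as highest concentration tested. GI50: concentration for 50% inhibition of growth.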 Active and inactive are the calls of the source. Rule as the data show it: active = GI50 up to about 1.1 µM and inactive = higher.
Experiments:
Test in all cases: DTP human tumour cell line panel, 48 h
A549 = tested on: A549
MOLT-4 = tested on: MOLT-4
SK-MEL-2 = tested on: SK-MEL-2
UO-31 = tested on: UO-31
Malme-3M = tested on: Malme-3M
HOP-92 = tested on: HOP-92
786-0 = tested on: 786-0
M14 = tested on: M14
HOP-62 = tested on: HOP-62
SF-295 = tested on: SF-295
BT-549 = tested on: BT-549
PC-3 = tested on: PC-3
OVCAR-5 = tested on: OVCAR-5
SNB-19 = tested on: SNB-19
NCI/ADR-RES = tested on: NCI/ADR-RES
K562 = tested on: K562
ACHN = tested on: ACHN
HCC 2998 = tested on: HCC 2998
LOX IMVI = tested on: LOX IMVI
OVCAR-4 = tested on: OVCAR-4

Measured: GI50

COc1ccc(OC)c2sc(N3C(=O)/C(=C/c4ccc(Cl)cc4)N=C3c3ccccc3)nc12
inactive: A549 > 100 µM | MOLT-4 24.7 µM | SK-MEL-2 > 100 µM | UO-31 > 100 µM | Malme-3M > 100 µM | HOP-92 49.5 µM | 786-0 73.3 µM | M14 > 100 µM | HOP-62 > 100 µM | SF-295 76.6 µM | BT-549 > 100 µM | PC-3 58.1 µM | OVCAR-5 > 100 µM | SNB-19 > 100 µM | NCI/ADR-RES > 100 µM | K562 26.2 µM | ACHN > 100 µM | HCC 2998 80.2 µM | LOX IMVI 34.2 µM

CCCCC(C#N)(OP1(=O)OC(c2ccccc2)C(C)N1C)c1ccccc1 (configuration not stated)
inactive: A549 20.1 µM | MOLT-4 15.7 µM | SK-MEL-2 19.2 µM | UO-31 17.3 µM | Malme-3M 15.6 µM | HOP-92 12.4 µM | 786-0 17.3 µM | M14 20.7 µM | HOP-62 21.6 µM | SF-295 17.5 µM | BT-549 20.3 µM | PC-3 17 µM | OVCAR-5 17.1 µM | SNB-19 19.2 µM | NCI/ADR-RES 20 µM | K562 19 µM | ACHN 19 µM | HCC 2998 15.1 µM | LOX IMVI 18.9 µM

O=C1CSC2=NC3=C(COC/C3=C\c3ccc(F)cc3)C(c3ccc(F)cc3)N12 (configuration not stated)
inactive: MOLT-4 20.6 µM | SK-MEL-2 99.5 µM | UO-31 38.4 µM | HOP-92 93.5 µM | 786-0 59.4 µM | M14 35.5 µM | OVCAR-4 50.9 µM | HOP-62 > 100 µM | SF-295 52.5 µM | BT-549 > 100 µM | PC-3 34.8 µM | OVCAR-5 > 100 µM | SNB-19 94.2 µM | NCI/ADR-RES 58.9 µM | K562 34.4 µM | ACHN 71 µM | HCC 2998 48.6 µM | LOX IMVI 52 µM

Cc1c(-c2ccccc2)[nH]c2cn[nH]c(=O)c12
inactive: A549 > 100 µM | MOLT-4 83.2 µM | SK-MEL-2 90.8 µM | UO-31 80 µM | Malme-3M > 100 µM | HOP-92 > 100 µM | 786-0 > 100 µM | M14 > 100 µM | HOP-62 50.9 µM | SF-295 41 µM | BT-549 75 µM | PC-3 67.9 µM | OVCAR-5 > 100 µM | SNB-19 > 100 µM | NCI/ADR-RES 73.8 µM | K562 99.8 µM | ACHN > 100 µM | HCC 2998 > 100 µM | LOX IMVI 70.6 µM

N#Cc1nc(C(CO)N(Cc2ccccc2)C(=O)O)oc1N (configuration not stated)
inactive: A549 > 100 µM | MOLT-4 > 100 µM | SK-MEL-2 > 100 µM | UO-31 > 100 µM | HOP-92 > 100 µM | 786-0 > 100 µM | M14 > 100 µM | OVCAR-4 > 100 µM | HOP-62 > 100 µM | SF-295 > 100 µM | BT-549 > 100 µM | PC-3 > 100 µM | OVCAR-5 > 100 µM | NCI/ADR-RES > 100 µM | K562 > 100 µM | ACHN > 100 µM | HCC 2998 > 100 µM | LOX IMVI > 100 µM

O=C(NI1OC(=O)c2ccccc21)c1ccc(Cl)cc1
inactive: A549 > 100 µM | SK-MEL-2 > 100 µM | UO-31 43.2 µM | HOP-92 > 100 µM | 786-0 > 100 µM | M14 > 100 µM | OVCAR-4 > 100 µM | HOP-62 > 100 µM | SF-295 > 100 µM | BT-549 > 100 µM | PC-3 > 100 µM | OVCAR-5 > 100 µM | NCI/ADR-RES > 100 µM | K562 28.4 µM | ACHN > 100 µM | HCC 2998 76.2 µM | LOX IMVI > 100 µM

Nc1ccc2c(c1)S(=O)(=O)c1cc(O)ccc1O2
inactive: A549 > 100 µM | MOLT-4 > 100 µM | SK-MEL-2 > 100 µM | UO-31 55.3 µM | HOP-92 > 100 µM | 786-0 > 100 µM | M14 > 100 µM | OVCAR-4 > 100 µM | HOP-62 > 100 µM | SF-295 > 100 µM | BT-549 45.6 µM | PC-3 > 100 µM | OVCAR-5 > 100 µM | SNB-19 > 100 µM | NCI/ADR-RES > 100 µM | K562 > 100 µM | ACHN > 100 µM | HCC 2998 > 100 µM | LOX IMVI > 100 µM

CC[C@@H](/C=C\CCC1(C[C@H](O)CCC=C(C)C)OCCO1)O[Si](C(C)C)(C(C)C)C(C)C
inactive: A549 33.2 µM | MOLT-4 19.3 µM | SK-MEL-2 16.3 µM | UO-31 19.2 µM | HOP-92 28.5 µM | 786-0 17.5 µM | M14 26.5 µM | OVCAR-4 50.8 µM | HOP-62 34.3 µM | SF-295 20.2 µM | BT-549 30.5 µM | PC-3 29.8 µM | OVCAR-5 22 µM | SNB-19 18.9 µM | NCI/ADR-RES 22.4 µM | K562 20 µM | ACHN 18.3 µM | HCC 2998 16.4 µM | LOX IMVI 20.4 µM

C#CCn1c(=O)ccn(/C(=C/C(=O)OCC)C(=O)OCC)c1=O
inactive: A549 17.2 µM | MOLT-4 3.43 µM | SK-MEL-2 15.2 µM | UO-31 12.6 µM | Malme-3M 1.96 µM | HOP-92 2.38 µM | 786-0 3.41 µM | M14 4.05 µM | OVCAR-4 4.62 µM | HOP-62 13 µM | SF-295 24.6 µM | BT-549 10.5 µM | PC-3 14.2 µM | OVCAR-5 7.13 µM | SNB-19 19 µM | NCI/ADR-RES 3.7 µM | K562 3.36 µM | ACHN 1.59 µM | LOX IMVI 13.9 µM

O=C(O)CCc1nc2cc3ccccc3cc2[nH]c1=O
inactive: A549 > 100 µM | MOLT-4 > 100 µM | SK-MEL-2 > 100 µM | UO-31 > 100 µM | HOP-92 > 100 µM | 786-0 > 100 µM | M14 > 100 µM | OVCAR-4 > 100 µM | HOP-62 > 100 µM | SF-295 > 100 µM | BT-549 > 100 µM | PC-3 > 100 µM | OVCAR-5 > 100 µM | SNB-19 > 100 µM | NCI/ADR-RES > 100 µM | K562 > 100 µM | ACHN > 100 µM | HCC 2998 > 100 µM | LOX IMVI > 100 µM

Cc1ccc(/N=N/C(=N\c2ccc(Cl)cc2)c2ccc(N(CCC#N)CCC#N)cc2)cc1
inactive: A549 29.6 µM | MOLT-4 > 100 µM | UO-31 6.89 µM | HOP-92 46.3 µM | 786-0 52 µM | M14 30.8 µM | OVCAR-4 51.4 µM | HOP-62 58.3 µM | SF-295 3.98 µM | BT-549 16.7 µM | PC-3 22.6 µM | OVCAR-5 > 100 µM | SNB-19 > 100 µM | NCI/ADR-RES 57.8 µM | K562 > 100 µM | ACHN 42 µM | HCC 2998 18.8 µM

O=C(/C=C/c1ccc2c(c1)OCO2)Cc1nc2ncccc2[nH]c1=O
inactive: A549 > 100 µM | MOLT-4 > 100 µM | SK-MEL-2 > 100 µM | UO-31 > 100 µM | Malme-3M > 100 µM | HOP-92 > 100 µM | 786-0 75.3 µM | M14 > 100 µM | HOP-62 39 µM | SF-295 69.3 µM | BT-549 > 100 µM | PC-3 > 100 µM | OVCAR-5 > 100 µM | SNB-19 63.8 µM | NCI/ADR-RES > 100 µM | K562 5.55 µM | ACHN 32.2 µM | HCC 2998 > 100 µM | LOX IMVI 8.53 µM

NS(=O)(=O)c1ccc(/N=N/c2cccnc2O)cc1
inactive: A549 > 100 µM | MOLT-4 > 100 µM | SK-MEL-2 > 100 µM | UO-31 > 100 µM | Malme-3M > 100 µM | HOP-92 > 100 µM | 786-0 > 100 µM | M14 > 100 µM | OVCAR-4 > 100 µM | HOP-62 > 100 µM | SF-295 > 100 µM | BT-549 > 100 µM | PC-3 > 100 µM | OVCAR-5 > 100 µM | SNB-19 > 100 µM | NCI/ADR-RES > 100 µM | K562 > 100 µM | ACHN > 100 µM | LOX IMVI > 100 µM

[O-][N+]1(CC[N+]2([O-])CCCCC2)CCCCC1
inactive: A549 > 100 µM | MOLT-4 > 100 µM | SK-MEL-2 > 100 µM | UO-31 > 100 µM | Malme-3M > 100 µM | HOP-92 > 100 µM | 786-0 > 100 µM | M14 > 100 µM | OVCAR-4 > 100 µM | HOP-62 > 100 µM | SF-295 > 100 µM | BT-549 > 100 µM | PC-3 > 100 µM | OVCAR-5 > 100 µM | SNB-19 > 100 µM | NCI/ADR-RES > 100 µM | K562 > 100 µM | ACHN > 100 µM | LOX IMVI > 100 µM

COc1ccc(C2=Nn3c(nc4sc(C)c(C)c4c3=O)SC2)cc1
inactive: A549 > 100 µM | MOLT-4 > 100 µM | UO-31 > 100 µM | Malme-3M > 100 µM | HOP-92 > 100 µM | 786-0 > 100 µM | OVCAR-4 > 100 µM | HOP-62 > 100 µM | SF-295 > 100 µM | BT-549 > 100 µM | PC-3 > 100 µM | OVCAR-5 > 100 µM | NCI/ADR-RES > 100 µM | K562 > 100 µM | ACHN > 100 µM | HCC 2998 > 100 µM | LOX IMVI > 100 µM

From ChEMBL document CHEMBL1201862, “PubChem BioAssay data set” (2004)
